The source of these data is patent publication US20200261445A1, “USE OF SENOLYTIC AGENTS TO ELIMINATE PERSISTENT HIV RESERVOIRS” (The George Washington University, priority 2017, published 2020).

Data set [1] deals with HIV latency reservoir (resting CD4+ T cells). As to the kind of experiment: HIVE assay with quantitative viral outgrowth (IUPM), three HIV latency reservoir models. Format: cell-based. Particulars: A-463 only (100 nM per FIG. 9F); all three models; p<0.01. On the procedure:
(§1) For each condition tested, up to 200×10^6 PBMC were thawed from leukapheresis material. An aliquot of PBMCs was stained with antibodies to CD3, CD4, CD8, HLA-DR, and CD69 for flow cytometry analysis (pre-selection sample). Resting CD4^+ T-cells were enriched from these PBMC by negative selection (Easysep CD4^+ T-cell enrichment kit, Stemcell Technologies) following the manufacturer's instructions. Cells were washed and re-suspended in 1 ml of 2% FBS PBS and an aliquot was stained as above (post-selection sample). To proceed, >98% pure resting CD4^+ T-cells in the negative fraction we required. […]
(§2) Co-cultures were harvested at 4 days post-initiation of co-culture. […] CD4^+ T-cells were then fixed in 2% paraformaldehyde, and analyzed by flow cytometry on an LSR-II instrument and with FlowJo software.
(§3) DNA quantification: 2×10^6 cells/condition were centrifuged and DNA, for ddPCR, was extracted from cell pellets using the Gentra Puregene kit (Qiagen), following the manufacturer's instructions. This DNA was then analyzed by digital droplet polymerase chain reaction (see below). Infectious virus quantification: The remaining cells, to be used for viral outgrowth assays, were incubated overnight in R10-50+4 nM IL-15SA (ALT-803) at a concentration of 2×10^6 cells/ml. These cells are then plated out in quantitative viral outgrowth assays (see below). […]

Data set [2] has the same test system. Nature of the data set: HIVE assay with ddPCR of total HIV DNA, three HIV latency reservoir models. Particulars: A-463 only (100 nM per FIG. 9E); all three models; p<0.01. The data set is classed as cell-based. On the procedure:
as §1, §2, §3

The subject of another data set is Bcl-2 family proteins. Particulars: selectivity within the Bcl-2 family, Table 1; cited from earlier work.
The subject of the next data set is resting CD4+ T cells. Nature of the data set: Cell cytotoxicity in HIV latency reservoir model cultures. The data set is classed as cell-based, human. The note with it: ABT-199 at 1 μM; not enough cells left to measure replication-competent virus (FIG. 9A). On the procedure:
For each condition tested, up to 200×10^6 PBMC were thawed from leukapheresis material. An aliquot of PBMCs was stained with antibodies to CD3, CD4, CD8, HLA-DR, and CD69 for flow cytometry analysis (pre-selection sample). Resting CD4^+ T-cells were enriched from these PBMC by negative selection (Easysep CD4^+ T-cell enrichment kit, Stemcell Technologies) following the manufacturer's instructions. Cells were washed and re-suspended in 1 ml of 2% FBS PBS and an aliquot was stained as above (post-selection sample). To proceed, >98% pure resting CD4^+ T-cells in the negative fraction we required.
NK cells and CTL clones were added at 1:10 effector:target ratios, with or without the indicated latency reversing agents. Co-cultures were performed at 2×10^6 cells/ml in XVIVO-15 serum free medium (Lonza) that had been supplemented with penicillin-streptomycin, L-glutamine, 0.1 nM IL-7 (to support survival), 1 μM tenofovir, 1 μM nevirapine, 1 μM emtricitabine, 10 μM T20, 10 U/ml DNAse I (ProSpec) ([…]). […]
Co-cultures were harvested at 4 days post-initiation of co-culture. […] CD4^+ T-cells were then fixed in 2% paraformaldehyde, and analyzed by flow cytometry on an LSR-II instrument and with FlowJo software. […]

The target of the next data set is Bcl-xL (Homo sapiens, UniProt Q07817). Particulars: Table 1; cited from earlier work.
Sequence of Bcl-xL (Q07817 whole entry): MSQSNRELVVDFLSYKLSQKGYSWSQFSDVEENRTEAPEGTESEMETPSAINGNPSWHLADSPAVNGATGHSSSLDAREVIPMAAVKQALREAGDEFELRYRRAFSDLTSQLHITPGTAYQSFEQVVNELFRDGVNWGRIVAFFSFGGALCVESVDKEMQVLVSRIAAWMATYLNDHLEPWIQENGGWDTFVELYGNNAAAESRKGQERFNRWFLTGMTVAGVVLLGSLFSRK
Data set [3] deals with HIV latency reservoir models spiked into natural reservoirs. Nature of the data set: 'Spiked' HIVE assay with QVOA (latency model cells spiked into natural reservoirs). The data set is classed as cell-based. The note with it: Bryostatin 10 nM, ABT-199 100 nM, HIV-specific CTLs, FIG. 10. On the procedure: For experiments using CTL clones as effectors, clones were used at […] after their most recent re-stimulation. Specificity, functionality, and responsiveness of CTLs were confirmed by CD107a degranulation assays, as well as by HIV elimination assays the day before assay setup. Clones were washed extensively prior to addition to co-culture.
NK cells and CTL clones were added at 1:10 effector:target ratios, with or without the indicated latency reversing agents. […]
as §2, §3

Turning to `CN(C)CC#Cc1ccc(OCCCc2sc(N3CCc4cccc(C(=O)Nc5nc6ccccc6s5)c4C3)nc2C(=O)O)c(F)c1` [A-1155463], the “infectious replicative competent (IUPM)” value in data set [1] was “statistically significant reduction”. The “total HIV DNA copies” value in data set [2] was “statistically significant reduction”. The Selective/pan result with Bcl-2 family proteins is “Selective”.

For the compound `Cc1nn(C)c(COc2ccc(N3CCN(S(=O)(=O)N(C)C)CC3)cc2)c1-c1cccc2c(CCCOc3cccc4ccccc34)c(C(=O)O)n(CCN3CCOCC3)c12` [A-1210477], in the data set on Bcl-2 family proteins, the Selective/pan result is “Selective”.

`Cc1c(-c2ccc(N3CCc4cccc(C(=O)Nc5nc6ccccc6s5)c4C3)nc2C(=O)O)cnn1CC12CC3CC(CC(C3)C1)C2` [A-1331852]: in the data set with Bcl-2 family proteins, the Selective/pan result was “Selective”.

On to `CC1(C)CCC(CN2CCN(c3ccc(C(=O)NS(=O)(=O)c4ccc(NCC5CCOCC5)c([N+](=O)[O-])c4)c(Oc4cnc5[nH]ccc5c4)c3)CC2)=C(c2ccc(Cl)cc2)C1` [ABT-199, Venetoclax], for which the cell cytotoxicity entry in the data set with resting CD4+ T cells is given as “cell cytotoxicity”.

For the compound `Cc1cc2c(C(C)C)c(O)c(O)c(C=O)c2c(O)c1-c1c(C)cc2c(C(C)C)c(O)c(O)c(C=O)c2c1O` [AT101], the Selective/pan result in the data set with Bcl-2 family proteins is “Pan”. On Bcl-xL, the “Known Bcl-xL inhibition” value is “Yes”.

As to `CC(C)C(C(=O)O)N1C(=O)/C(=C\c2ccc(Br)cc2)SC1=S` (centres unmarked) [BH31-1], in the data set with Bcl-2 family proteins, the Selective/pan result is “Pan”. On Bcl-xL, the “Known Bcl-xL inhibition” value was “Yes”.

With `CCC/C=C/C=C/C(=O)O[C@H]1/C(=C/C(=O)OC)C[C@H]2C[C@H]([C@@H](C)O)OC(=O)C[C@H](O)C[C@@H]3C[C@H](OC(C)=O)C(C)(C)[C@](O)(C[C@@H]4C/C(=C/C(=O)OC)C[C@H](/C=C/C(C)(C)[C@]1(O)O2)O4)O3` [Bryostatin, bryostatin 1], the “IUPM compared to the NoTx condition” value in data set [3] is “did not lead to significant decreases”.

For `CC(C)=CCC[C@]1(C)C=Cc2c(O)c3c(c(CC=C(C)C)c2O1)O[C@]12C(=C[C@@H]4C[C@H]1C(C)(C)O[C@@]2(C/C=C(/C)C(=O)O)C4=O)C3=O` [Gambogic Acid], the Selective/pan result in the data set on Bcl-2 family proteins is listed as “Pan”. For the same compound, at Bcl-xL, the “Known Bcl-xL inhibition” value is reported as “Yes”.

`Cc1cc2c(C(=O)NC[C@H](C)c3ccccc3)c(O)c(O)cc2c(O)c1-c1c(C)cc2c(C(=O)NC[C@H](C)c3ccccc3)c(O)c(O)cc2c1O` [Sabutoclax]: the Selective/pan entry with Bcl-2 family proteins is “Pan”. Moreover, the “Known Bcl-xL inhibition” value at Bcl-xL is on record as “Yes”.

Take `CC(C)c1ccccc1Cc1cc(C(=O)Nc2ccc(S(=O)(=O)c3ccccc3C(C)(C)C)cc2)c(O)c(O)c1O` [TW-37]: the Selective/pan result in the data set on Bcl-2 family proteins was “Pan”. Besides, the “Known Bcl-xL inhibition” value at Bcl-xL is listed as “Yes”.

For `O=C(O)CSc1cc(NS(=O)(=O)c2ccc(Br)cc2)c2ccccc2c1O` [UMI-77], the Selective/pan result in the data set with Bcl-2 family proteins is listed as “Selective”.

Take ABT-263: the Selective/pan result in the data set with Bcl-2 family proteins was “Pan”. For the same compound, the “Known Bcl-xL inhibition” value on Bcl-xL is “Yes”.
